Measured values published in ChEMBL document CHEMBL4431320 (J Med Chem, 2016).
Calls of active or inactive are those of the source. The calls are words filed in the database; no cut-off is given here.

test system: not listed separately; assay: Stability of compound in crystallization buffer at pH 7.4 at 0.1 mg/mL incubated for 24 hrs by RP-HPLC analysis; assay type: physicochemical; conditions: pH 7.4, 24 h

Compound | Stability
CCn1c2ccccc2c2cc(C3C(C(=O)OCC4CCCO4)=C(C)NC4=C3C(=O)CCC4)ccc21 (stereo unspecified) | Stable

biological target: Acetylcholinesterase (Homo sapiens) (UniProt P22303); assay: Inhibition of human AChE at 10 uM using ACTI as substrate incubated for 40 mins measured at 1 min intervals for 10 mins by Ellman's assay; conditions: not given
Sequence (P22303 whole entry): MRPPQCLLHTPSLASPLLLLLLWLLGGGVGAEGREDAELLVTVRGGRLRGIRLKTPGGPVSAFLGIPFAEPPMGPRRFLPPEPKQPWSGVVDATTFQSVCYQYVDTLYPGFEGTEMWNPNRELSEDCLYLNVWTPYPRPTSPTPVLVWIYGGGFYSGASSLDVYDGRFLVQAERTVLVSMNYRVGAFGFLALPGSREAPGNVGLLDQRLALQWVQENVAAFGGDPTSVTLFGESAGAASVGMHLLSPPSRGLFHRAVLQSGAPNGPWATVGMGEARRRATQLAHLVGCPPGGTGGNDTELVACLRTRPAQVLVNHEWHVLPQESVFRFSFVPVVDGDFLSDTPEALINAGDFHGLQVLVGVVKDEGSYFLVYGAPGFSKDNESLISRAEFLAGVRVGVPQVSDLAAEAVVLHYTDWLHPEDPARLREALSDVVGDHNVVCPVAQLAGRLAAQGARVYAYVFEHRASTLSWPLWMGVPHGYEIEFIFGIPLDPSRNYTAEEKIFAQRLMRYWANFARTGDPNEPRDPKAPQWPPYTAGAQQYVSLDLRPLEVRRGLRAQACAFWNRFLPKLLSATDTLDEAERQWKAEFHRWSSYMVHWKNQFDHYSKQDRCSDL

Compound | inhibition
CCn1c2ccccc2c2cc(C3C(C(=O)OCC4CCCO4)=C(C)NC4=C3C(=O)CCC4)ccc21 (stereo unspecified) | inactive

biological target: Acetylcholinesterase (Electrophorus electricus) (UniProt O42275); assay: Inhibition of electric eel AChE at 10 uM using ACTI as substrate preincubated for 29 mins followed by substrate addition measured at 1 min intervals for 10 mins by Ellman's assay; conditions: not given
Sequence (O42275 24-633 limits assumed): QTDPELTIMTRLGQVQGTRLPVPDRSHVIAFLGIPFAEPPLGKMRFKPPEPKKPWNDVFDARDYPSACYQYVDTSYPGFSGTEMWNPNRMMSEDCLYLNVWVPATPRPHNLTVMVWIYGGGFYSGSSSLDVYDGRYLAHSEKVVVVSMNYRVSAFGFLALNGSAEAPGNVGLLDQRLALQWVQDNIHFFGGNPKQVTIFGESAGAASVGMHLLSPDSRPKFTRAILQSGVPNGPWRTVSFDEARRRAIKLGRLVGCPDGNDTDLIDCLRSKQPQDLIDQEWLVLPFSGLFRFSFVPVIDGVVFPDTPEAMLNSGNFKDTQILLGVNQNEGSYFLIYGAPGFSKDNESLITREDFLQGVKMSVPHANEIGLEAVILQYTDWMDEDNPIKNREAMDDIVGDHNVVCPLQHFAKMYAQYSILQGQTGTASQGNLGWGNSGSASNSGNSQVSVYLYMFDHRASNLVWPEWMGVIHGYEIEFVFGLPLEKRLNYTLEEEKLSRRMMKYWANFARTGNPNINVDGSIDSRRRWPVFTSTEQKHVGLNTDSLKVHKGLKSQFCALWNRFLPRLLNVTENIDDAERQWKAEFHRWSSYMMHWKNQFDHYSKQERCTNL

Compound | inhibition
Cc1cc2nc([C@@H]3CCCN3C(=O)[C@H]3C[C@@H](O)CN3Cc3ccccc3)[nH]c2cc1C | inactive
CCn1c2ccccc2c2cc(C3C(C(=O)OCC4CCCO4)=C(C)NC4=C3C(=O)CCC4)ccc21 (stereo unspecified) | 1.73%
O=C(CS[C@@H]1CC(=O)N(c2ccccc2)C1=O)Nc1ccccc1F | 0.484%
CCOC(=O)N1CCN([C@H]2CC(=O)N(c3cccc4ccccc34)C2=O)CC1 | 4.93%
CCCCSc1nc2c(c(=O)[nH]c(=O)n2C)n1C[C@@H](O)COc1cccc2ccccc12 | 5.34%
COc1ccccc1NC(=O)Cn1c(CCC(=O)O)ccc1-c1ccccc1 | 2.2%
CN(CC(=O)Nc1ccccc1F)S(=O)(=O)c1ccc2ccccc2c1 | 3.43%
Cc1ccccc1-n1nc(C)c(CN(CCN(C)C)Cc2ccccn2)c1C | 2.46%
O[C@H](CN1CCN(c2ccccc2)CC1)c1c[nH]c2ccc(F)cc12 | 2.69%
Cc1cccc(C2(O)CCN(Cc3c(-c4cccs4)[nH]c4ncccc34)CC2)c1 | 2.14%
O=C(Cn1cc(C(=O)C2CC2)c2ccccc21)NCCc1c[nH]c2ccccc12 | 3.44%
O=C(O)[C@H](Cc1c[nH]c2ccccc12)Nc1ncnc2c1oc1ccccc12 | 1.45%
Cc1cc(C)n(C[C@H](O)CN(Cc2nc3ccccc3[nH]2)Cc2ccco2)n1 | 2.32%
CCn1c2ccccc2c2cc([C@@H]3C(C(=O)OCCOC)=C(C)NC4=C3C(=O)CCC4)ccc21 | 1.35%

test system: not listed separately; assay: Selectivity ratio of IC50 for equine BuChE to IC50 for human BuChE; conditions: not given

Compound | Ratio IC50
CCn1c2ccccc2c2cc(C3C(C(=O)OCC4CCCO4)=C(C)NC4=C3C(=O)CCC4)ccc21 (stereo unspecified) | 2

test system: SH-SY5Y; assay: Cytotoxicity against human SH-SY5Y cells at 0.5 to 10 uM after 48 hrs by MTT assay; assay type: cell-based; conditions: not given

Compound | Activity
CCn1c2ccccc2c2cc(C3C(C(=O)OCC4CCCO4)=C(C)NC4=C3C(=O)CCC4)ccc21 (stereo unspecified) | Non-Toxic

test system: not listed separately; assay: Stability of compound in crystallization buffer at pH 7.4 at 0.1 mg/mL incubated for 24 hrs by RP-HPLC analysis in presence of equine BuChE; assay type: physicochemical; conditions: pH 7.4, 24 h

Compound | Stability
CCn1c2ccccc2c2cc(C3C(C(=O)OCC4CCCO4)=C(C)NC4=C3C(=O)CCC4)ccc21 (stereo unspecified) | Stable

test system: not listed separately; assay: Permeability of compound at 10 uM after 4 hrs by PAMPA; assay type: ADME; conditions: read-out: permeability

Compound | Papp at 4 h, 10 µM [×10⁻⁶ cm/s]
CCn1c2ccccc2c2cc(C3C(C(=O)OCC4CCCO4)=C(C)NC4=C3C(=O)CCC4)ccc21 (stereo unspecified) | 2.46

biological target: Cholinesterase (Equus caballus, UniProt P81908); conditions: not given
Sequence (P81908 whole entry): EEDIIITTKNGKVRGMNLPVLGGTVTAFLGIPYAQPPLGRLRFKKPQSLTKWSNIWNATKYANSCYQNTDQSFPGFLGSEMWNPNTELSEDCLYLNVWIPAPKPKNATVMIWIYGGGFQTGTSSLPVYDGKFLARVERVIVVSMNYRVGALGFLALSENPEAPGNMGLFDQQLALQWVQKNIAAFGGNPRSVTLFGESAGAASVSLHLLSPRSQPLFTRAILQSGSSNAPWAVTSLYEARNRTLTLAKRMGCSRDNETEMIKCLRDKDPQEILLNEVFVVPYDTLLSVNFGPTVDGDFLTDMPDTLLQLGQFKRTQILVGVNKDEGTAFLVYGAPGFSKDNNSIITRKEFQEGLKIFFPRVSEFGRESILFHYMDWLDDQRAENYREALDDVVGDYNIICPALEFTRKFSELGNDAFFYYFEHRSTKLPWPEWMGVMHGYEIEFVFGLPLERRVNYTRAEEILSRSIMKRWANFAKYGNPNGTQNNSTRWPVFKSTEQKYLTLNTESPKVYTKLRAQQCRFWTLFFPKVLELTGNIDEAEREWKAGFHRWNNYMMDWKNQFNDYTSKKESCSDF

Compound | IC50 [µM]
Cc1cc2nc([C@@H]3CCCN3C(=O)[C@H]3C[C@@H](O)CN3Cc3ccccc3)[nH]c2cc1C | 46.8
CCn1c2ccccc2c2cc(C3C(C(=O)OCC4CCCO4)=C(C)NC4=C3C(=O)CCC4)ccc21 (stereo unspecified) | 0.763
Cc1ccccc1-n1nc(C)c(CN(CCN(C)C)Cc2ccccn2)c1C | 19.2
Cc1cccc(C2(O)CCN(Cc3c(-c4cccs4)[nH]c4ncccc34)CC2)c1 | 48.9
CCn1c2ccccc2c2cc([C@@H]3C(C(=O)OCCOC)=C(C)NC4=C3C(=O)CCC4)ccc21 | 9.72

biological target: Cholinesterase (Equus caballus) (UniProt P81908); assay: Inhibition of equine BuChE at 10 uM using ACTI as substrate preincubated for 29 mins followed by substrate addition measured at 1 min intervals for 10 mins by Ellman's assay; conditions: not given
Sequence (P81908 whole entry): as above

Compound | inhibition
Cc1cc2nc([C@@H]3CCCN3C(=O)[C@H]3C[C@@H](O)CN3Cc3ccccc3)[nH]c2cc1C | 17.5%
CCn1c2ccccc2c2cc(C3C(C(=O)OCC4CCCO4)=C(C)NC4=C3C(=O)CCC4)ccc21 (stereo unspecified) | 84.2%
O=C(CS[C@@H]1CC(=O)N(c2ccccc2)C1=O)Nc1ccccc1F | 6.01%
CCn1c2ccccc2c2cc(C3C(C(=O)OC)=C(C)NC4=C3C(=O)CCC4)ccc21 (stereo unspecified) | 49.5%
CCCCOC(=O)C1=C(C)NC2=C(C(=O)CCC2)C1c1ccc2c(c1)c1ccccc1n2CC (stereo unspecified) | 53.7%
CCOC(=O)N1CCN([C@H]2CC(=O)N(c3cccc4ccccc34)C2=O)CC1 | 1.85%
CCCCSc1nc2c(c(=O)[nH]c(=O)n2C)n1C[C@@H](O)COc1cccc2ccccc12 | 3.69%
COc1ccccc1NC(=O)Cn1c(CCC(=O)O)ccc1-c1ccccc1 | 5.54%
CN(CC(=O)Nc1ccccc1F)S(=O)(=O)c1ccc2ccccc2c1 | 5.64%
Cc1ccccc1-n1nc(C)c(CN(CCN(C)C)Cc2ccccn2)c1C | 31.9%
O[C@H](CN1CCN(c2ccccc2)CC1)c1c[nH]c2ccc(F)cc12 | 1.31%
CCSCCOC(=O)C1=C(C)NC2=C(C(=O)CCC2)C1c1ccc2c(c1)c1ccccc1n2CC (stereo unspecified) | 51.2%
CCC(C)OC(=O)C1=C(C)NC2=C(C(=O)CC(C)(C)C2)C1c1ccc2c(c1)c1ccccc1n2CC (stereo unspecified) | inactive
Cc1cccc(C2(O)CCN(Cc3c(-c4cccs4)[nH]c4ncccc34)CC2)c1 | 16.2%
CCn1c2ccccc2c2cc(C3C(C(=O)OC4CCCC4)=C(C)NC4=C3C(=O)CC(C)(C)C4)ccc21 (stereo unspecified) | 2.53%
O=C(Cn1cc(C(=O)C2CC2)c2ccccc21)NCCc1c[nH]c2ccccc12 | 7.28%
CCOCCOC(=O)C1=C(C)NC2=C(C(=O)CC(C)(C)C2)C1c1ccc2c(c1)c1ccccc1n2CC (stereo unspecified) | 2.49%
O=C(O)[C@H](Cc1c[nH]c2ccccc12)Nc1ncnc2c1oc1ccccc12 | 7.18%
Cc1cc(C)n(C[C@H](O)CN(Cc2nc3ccccc3[nH]2)Cc2ccco2)n1 | 6.33%
CCn1c2ccccc2c2cc([C@@H]3C(C(=O)OCCOC)=C(C)NC4=C3C(=O)CCC4)ccc21 | 52.7%

biological target: Cholinesterase (Homo sapiens, UniProt P06276); conditions: not given
Sequence (P06276 whole entry): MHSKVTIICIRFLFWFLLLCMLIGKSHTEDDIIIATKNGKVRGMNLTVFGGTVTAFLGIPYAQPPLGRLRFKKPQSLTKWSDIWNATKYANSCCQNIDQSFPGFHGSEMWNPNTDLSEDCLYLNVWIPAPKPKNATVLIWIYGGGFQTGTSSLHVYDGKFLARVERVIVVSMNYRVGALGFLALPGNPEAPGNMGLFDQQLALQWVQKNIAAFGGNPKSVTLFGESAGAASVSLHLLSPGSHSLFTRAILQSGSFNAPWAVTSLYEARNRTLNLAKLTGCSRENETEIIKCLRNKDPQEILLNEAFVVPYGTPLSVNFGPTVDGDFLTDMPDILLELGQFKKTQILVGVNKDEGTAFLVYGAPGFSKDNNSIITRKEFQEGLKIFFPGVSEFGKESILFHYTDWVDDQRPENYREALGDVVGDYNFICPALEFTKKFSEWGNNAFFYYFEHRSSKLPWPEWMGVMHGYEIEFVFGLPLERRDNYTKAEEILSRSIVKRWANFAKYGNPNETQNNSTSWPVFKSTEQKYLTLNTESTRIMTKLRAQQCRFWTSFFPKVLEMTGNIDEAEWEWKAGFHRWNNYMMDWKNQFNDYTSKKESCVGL

Compound | IC50 [nM]
CCn1c2ccccc2c2cc(C3C(C(=O)OCC4CCCO4)=C(C)NC4=C3C(=O)CCC4)ccc21 (stereo unspecified) | 443
